# From BindingDB's records for doi:10.1016/s0960-894x(97)10148-2 (Smithkline Beecham Pharmaceuticals, 1999)
# Molecular target: T1, Low affinity immunoglobulin epsilon Fc receptor (Homo sapiens, UniProt P06734)
# T1 sequence (P06734 whole entry): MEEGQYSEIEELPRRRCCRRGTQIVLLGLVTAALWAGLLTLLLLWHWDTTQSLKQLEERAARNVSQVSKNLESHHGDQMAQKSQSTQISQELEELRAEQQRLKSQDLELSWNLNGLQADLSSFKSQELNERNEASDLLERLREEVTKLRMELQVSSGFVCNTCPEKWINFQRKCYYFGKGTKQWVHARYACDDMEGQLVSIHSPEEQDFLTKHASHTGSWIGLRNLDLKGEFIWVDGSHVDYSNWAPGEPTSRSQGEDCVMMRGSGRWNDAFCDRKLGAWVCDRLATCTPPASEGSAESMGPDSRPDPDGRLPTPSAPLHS
# Assay: (§1) Tested for inhibition against CD23 (IgE receptor) proteolysis in membranes derived from RPM18866 cells ( a human B-cell line); value ranges from 5-10
row,IC50 [µM],SMILES
1,5,O=C(C[C@H](C(=O)N[C@@H](Cc1ccccc1)C(=O)NCc1ccccc1)C1CCCCC1)NO [(S)-N*1*-((S)-1-Benzylcarbamoyl-2-phenyl-ethyl)-2-cyclohexyl-N*4*-hydroxy-succinamide]

# Molecular target: T1, Low affinity immunoglobulin epsilon Fc receptor
# Assay: ChEBML_41676
# Source text: as §1
row,IC50 [µM],SMILES
1,8,CC(C)SC[C@H](CC(=O)NO)C(=O)N[C@@H](Cc1ccccc1)C(=O)NCc1ccccc1 [(R)-N*1*-((S)-1-Benzylcarbamoyl-2-phenyl-ethyl)-N*4*-hydroxy-2-isopropylsulfanylmethyl-succinamide]
2,1,O=C(C[C@@H](Cc1ccc2ccccc2c1)C(=O)N[C@@H](Cc1ccccc1)C(=O)NCc1ccccc1)NO [(R)-N*1*-((S)-1-Benzylcarbamoyl-2-phenyl-ethyl)-N*4*-hydroxy-2-naphthalen-2-ylmethyl-succinamide]

# Molecular target: not listed separately
# Assay: Tested for inhibition against CD23 (IgE receptor) proteolysis in membranes derived from RPM18866 cells (a human B-cell line)
row,IC50 [µM],SMILES
1,> 20,NC(=O)CC[C@H](CC(=O)NO)C(=O)N[C@@H](Cc1ccccc1)C(=O)NCc1ccccc1 [(R)-3-((S)-1-Benzylcarbamoyl-2-phenyl-ethylcarbamoyl)-hexanedioic acid 6-amide 1-hydroxyamide]
2,> 20,"O=C(C[C@@H](O)C(=O)N[C@@H](Cc1ccccc1)C(=O)NCc1ccccc1)NO [(R)-N*1*-((S)-1-Benzylcarbamoyl-2-phenyl-ethyl)-2,N*4*-dihydroxy-succinamide]"
3,3.7,O=C(C[C@@H](CC1CCCCC1)C(=O)N[C@@H](Cc1ccccc1)C(=O)NCc1ccccc1)NO [(R)-N*1*-((S)-1-Benzylcarbamoyl-2-phenyl-ethyl)-2-cyclohexylmethyl-N*4*-hydroxy-succinamide]
4,0.2,O=C(C[C@@H](CC1CCCC1)C(=O)N[C@@H](Cc1ccccc1)C(=O)NCc1ccccc1)NO [(R)-N*1*-((S)-1-Benzylcarbamoyl-2-phenyl-ethyl)-2-cyclopentylmethyl-N*4*-hydroxy-succinamide]
5,8,CC(C)S[C@H](CC(=O)NO)C(=O)N[C@@H](Cc1ccccc1)C(=O)NCc1ccccc1 [(R)-N*1*-((S)-1-Benzylcarbamoyl-2-phenyl-ethyl)-N*4*-hydroxy-2-isopropylsulfanyl-succinamide]
6,> 20,C[C@H](CC(=O)NO)C(=O)N[C@@H](Cc1ccccc1)C(=O)NCc1ccccc1 [(R)-N*1*-((S)-1-Benzylcarbamoyl-2-phenyl-ethyl)-N*4*-hydroxy-2-methyl-succinamide]
7,5,O=C(C[C@@H](CCc1ccccc1)C(=O)N[C@@H](Cc1ccccc1)C(=O)NCc1ccccc1)NO [(R)-N*1*-((S)-1-Benzylcarbamoyl-2-phenyl-ethyl)-N*4*-hydroxy-2-phenethyl-succinamide]
8,> 20,O=C(C[C@H](C(=O)N[C@@H](Cc1ccccc1)C(=O)NCc1ccccc1)c1ccc(-c2ccccc2)cc1)NO [(S)-N*1*-((S)-1-Benzylcarbamoyl-2-phenyl-ethyl)-2-biphenyl-4-yl-N*4*-hydroxy-succinamide]
9,> 20,CN(C)C[C@H](CC(=O)NO)C(=O)N[C@@H](Cc1ccccc1)C(=O)NCc1ccccc1 [(S)-N*1*-((S)-1-Benzylcarbamoyl-2-phenyl-ethyl)-2-dimethylaminomethyl-N*4*-hydroxy-succinamide]
10,> 20,CC(C)C[C@@H](CC(=O)NO)C(=O)N[C@@H](Cc1ccccc1)C(=O)NCc1ccccc1 [(S)-N*1*-((S)-1-Benzylcarbamoyl-2-phenyl-ethyl)-N*4*-hydroxy-2-isobutyl-succinamide]
11,> 20,O=C(C[C@H](C(=O)N[C@@H](Cc1ccccc1)C(=O)NCc1ccccc1)c1cccc2ccccc12)NO [(S)-N*1*-((S)-1-Benzylcarbamoyl-2-phenyl-ethyl)-N*4*-hydroxy-2-naphthalen-1-yl-succinamide]
12,1.6,O=C(C[C@H](C(=O)N[C@@H](Cc1ccccc1)C(=O)NCc1ccccc1)c1ccccc1)NO [(S)-N*1*-((S)-1-Benzylcarbamoyl-2-phenyl-ethyl)-N*4*-hydroxy-2-phenyl-succinamide]
13,> 20,O=C(CCC(=O)N[C@@H](Cc1ccccc1)C(=O)NCc1ccccc1)NO [N-((S)-1-Benzylcarbamoyl-2-phenyl-ethyl)-N'-hydroxy-succinamide]
